Data reported in patent US20250387419A1, “PARP INHIBITOR-RESISTANT PATIENT TREATED WITH TH-302” (ASCENTAWITS PHARMACEUTICALS, LTD., priority 2021, published 2025).

Assays:
[1] = tested on: BRCA-mutated Capan-1 cell line; assay: In vitro cell proliferation inhibition (CTG); type: cell-based, human; conditions: for IC50: Homo sapiens, CAPAN-1, Capan-1, 3 h treatment, 72 h
Text: (§1) The applicant specially studied in vitro cell proliferation inhibition of Capan-1 and BxPc-3 cell lines by the hypoxia-activated anti-cancer prodrugs TH-302 and tirapazamine under normoxia and hypoxia. The Capan-1 cell line was a BRCA-mutated cell line, and the BxPc-3 cell line was a BRCA wild-type (i.e., non-BRCA-mutated) cell line. This experiment was intended to verify the difference of the hypoxia-activated anti-cancer prodrugs, TH-302 and tirapazamine, in sensitivity to BRCA mutations.
(§2) • 1) Capan-1/BxPc-3 cell suspensions were added to two types of 24-well plates, 495 μL each well. Density of the cells was 6×10^4 per well. 24-well plates with glass inserts were used in hypoxic tests, and ordinary plastic 24-well plates were used in normoxic tests. • 2) The cells were incubated overnight in an incubator at 37° C. in 5% CO2. • 3) Compound Processing
(§3) A hypoxia workstation was tuned to create a hypoxic environment (O2<0.01%), and an oxygen indicator was used to confirm the hypoxia in the workstation.
(§4) 24 hours after cell seeding, the 24-well plates with glass inserts were transferred into the hypoxia workstation.
(§5) The 24-well plates were placed on vortex shakers, uncovered and shaken to allow air exchange for 5 minutes.
(§6) To each well in a monotherapy group, a 100× test compound solution was added.
(§7) 24 hours after cell seeding, 5 μL of the 100× test compound solution was added to each well. Three replicate wells were set up for each test group.

[2] = tested on: BRCA wild-type BxPc-3 cell line; assay: In vitro cell proliferation inhibition (CTG); type: cell-based; conditions: for IC50: Homo sapiens, BXPC-3, BxPc-3, 3 h treatment, 72 h
Text: as §1, §2, §3, §4, §5, §6, §7

## Nc1n[n+]([O-])c2ccccc2[n+]1[O-] [tirapazamine, reference compound]
[1]; Capan-1
  Ratio (21% O2/0.01% O2): >68.82
[1]; 21% O2
  IC50: > 2000 µM
[1]; <0.01% O2
  IC50: 29.1 µM
[2]; BxPc-3
  Ratio (21% O2/0.01% O2): >60.19
[2]; 21% O2
  IC50: > 2000 µM
[2]; <0.01% O2
  IC50: 33.2 µM
